Source: PubChem BioAssay (NCI)
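Tested at 5 concentrations; 48 h exposure; 96-well plates; endpoints linearly interpolated, else capped at highest concentration. TGI is the concentration that stops growth completely.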

Columns and labels:
Assay in all cases: growth of human tumour cells (NCI), 48 h
HCT-116 colon = tested on: HCT-116 colon
HT29 colon = tested on: HT29 colon
IGROV1 ovarian = tested on: IGROV1 ovarian
LOX IMVI melanoma = tested on: LOX IMVI melanoma
SF-539 CNS = tested on: SF-539 CNS
NCI-H522 lung = tested on: NCI-H522 lung
DLD-1 colon = tested on: DLD-1 colon
COLO 205 colon = tested on: COLO 205 colon
A549 NSCLC = tested on: A549 NSCLC
KM12 colon = tested on: KM12 colon
SK-MEL-5 melanoma = tested on: SK-MEL-5 melanoma
M14 melanoma = tested on: M14 melanoma
DMS 114 small cell lung = tested on: DMS 114 small cell lung
SK-OV-3 ovarian = tested on: SK-OV-3 ovarian
SF-295 CNS = tested on: SF-295 CNS
RXF 393 renal = tested on: RXF 393 renal
UACC-257 melanoma = tested on: UACC-257 melanoma
CAKI-1 renal = tested on: CAKI-1 renal
CCRF-CEM leukemia = tested on: CCRF-CEM leukemia
OVCAR-3 ovarian = tested on: OVCAR-3 ovarian
HL-60(TB) leukemia = tested on: HL-60(TB) leukemia
SR leukemia = tested on: SR leukemia
U251 CNS = tested on: U251 CNS
SNB-78 CNS = tested on: SNB-78 CNS
UACC-62 melanoma = tested on: UACC-62 melanoma
M19-MEL melanoma = tested on: M19-MEL melanoma
SK-MEL-28 melanoma = tested on: SK-MEL-28 melanoma
LXFL 529 NSCLC = tested on: LXFL 529 NSCLC
MOLT-4 leukemia = tested on: MOLT-4 leukemia
HOP-62 NSCLC = tested on: HOP-62 NSCLC
HCC-2998 colon = tested on: HCC-2998 colon
SN12C renal = tested on: SN12C renal
TK-10 renal = tested on: TK-10 renal
UO-31 renal = tested on: UO-31 renal
SW-620 colon = tested on: SW-620 colon
ACHN renal = tested on: ACHN renal
K-562 leukemia = tested on: K-562 leukemia
SNB-75 CNS = tested on: SNB-75 CNS
RPMI-8226 leukemia = tested on: RPMI-8226 leukemia
NCI-H460 lung = tested on: NCI-H460 lung
SF-268 CNS = tested on: SF-268 CNS
OVCAR-5 ovarian = tested on: OVCAR-5 ovarian
DMS 273 small cell lung = tested on: DMS 273 small cell lung
OVCAR-4 ovarian = tested on: OVCAR-4 ovarian
HCT-15 colon = tested on: HCT-15 colon
NCI-H23 lung = tested on: NCI-H23 lung
MALME-3M melanoma = tested on: MALME-3M melanoma
KM20L2 colon = tested on: KM20L2 colon
NCI-H226 lung = tested on: NCI-H226 lung
HOP-92 NSCLC = tested on: HOP-92 NSCLC
SNB-19 CNS = tested on: SNB-19 CNS
DU-145 prostate = tested on: DU-145 prostate
NCI/ADR-RES ovarian = tested on: NCI/ADR-RES ovarian
MDA-N = tested on: MDA-N
BT-549 breast = tested on: BT-549 breast
MDA-MB-435 = tested on: MDA-MB-435
SK-MEL-2 melanoma = tested on: SK-MEL-2 melanoma
MCF7 breast = tested on: MCF7 breast
MDA-MB-231 breast = tested on: MDA-MB-231 breast
T-47D breast = tested on: T-47D breast
A498 renal = tested on: A498 renal
HS 578T breast = tested on: HS 578T breast
PC-3 prostate = tested on: PC-3 prostate
EKVX NSCLC = tested on: EKVX NSCLC
786-0 renal = tested on: 786-0 renal

## COC(=N)C(C)C
HCT-116 colon
  TGI: > 100 µM
HT29 colon
  TGI: > 100 µM
IGROV1 ovarian
  TGI: > 100 µM
LOX IMVI melanoma
  TGI: > 100 µM
SF-539 CNS
  TGI: > 100 µM
NCI-H522 lung
  TGI: > 100 µM
DLD-1 colon
  TGI: > 100 µM
COLO 205 colon
  TGI: > 100 µM
A549 NSCLC
  TGI: > 100 µM
KM12 colon
  TGI: > 100 µM
SK-MEL-5 melanoma
  TGI: > 100 µM
M14 melanoma
  TGI: > 100 µM
DMS 114 small cell lung
  TGI: > 100 µM
SK-OV-3 ovarian
  TGI: > 100 µM
SF-295 CNS
  TGI: > 100 µM
RXF 393 renal
  TGI: > 100 µM
UACC-257 melanoma
  TGI: > 100 µM
CAKI-1 renal
  TGI: > 100 µM
CCRF-CEM leukemia
  TGI: > 100 µM
OVCAR-3 ovarian
  TGI: > 100 µM
HL-60(TB) leukemia
  TGI: > 100 µM
SR leukemia
  TGI: > 100 µM
U251 CNS
  TGI: > 100 µM
SNB-78 CNS
  TGI: > 100 µM
UACC-62 melanoma
  TGI: > 100 µM
M19-MEL melanoma
  TGI: > 100 µM
SK-MEL-28 melanoma
  TGI: > 100 µM
LXFL 529 NSCLC
  TGI: > 100 µM
MOLT-4 leukemia
  TGI: > 100 µM
HOP-62 NSCLC
  TGI: > 100 µM
HCC-2998 colon
  TGI: > 100 µM
SN12C renal
  TGI: > 100 µM
TK-10 renal
  TGI: > 100 µM
UO-31 renal
  TGI: > 100 µM
SW-620 colon
  TGI: > 100 µM
ACHN renal
  TGI: > 100 µM
K-562 leukemia
  TGI: > 100 µM
SNB-75 CNS
  TGI: > 100 µM
RPMI-8226 leukemia
  TGI: > 100 µM
NCI-H460 lung
  TGI: > 100 µM
SF-268 CNS
  TGI: > 100 µM
OVCAR-5 ovarian
  TGI: > 100 µM
DMS 273 small cell lung
  TGI: > 100 µM
OVCAR-4 ovarian
  TGI: > 100 µM
HCT-15 colon
  TGI: > 100 µM
NCI-H23 lung
  TGI: > 100 µM
MALME-3M melanoma
  TGI: > 100 µM
KM20L2 colon
  TGI: > 100 µM
NCI-H226 lung
  TGI: > 100 µM
HOP-92 NSCLC
  TGI: > 100 µM
SNB-19 CNS
  TGI: > 100 µM

## COc1cccc2c3cccc(OC)c3c3[nH]cnc3c12
HCT-116 colon
  TGI: 3.1 µM
DU-145 prostate
  TGI: 2.78 µM
HT29 colon
  TGI: 3 µM
IGROV1 ovarian
  TGI: 3.46 µM
LOX IMVI melanoma
  TGI: 3.52 µM
NCI/ADR-RES ovarian
  TGI: 9.42 µM
SF-539 CNS
  TGI: 2.68 µM
NCI-H522 lung
  TGI: 2.88 µM
COLO 205 colon
  TGI: 30.1 µM
A549 NSCLC
  TGI: 3.08 µM
KM12 colon
  TGI: 4.56 µM
M14 melanoma
  TGI: 3.08 µM
SK-OV-3 ovarian
  TGI: 34.1 µM
SF-295 CNS
  TGI: 9.51 µM
MDA-N
  TGI: 3.34 µM
RXF 393 renal
  TGI: 3.42 µM
UACC-257 melanoma
  TGI: 36.1 µM
CAKI-1 renal
  TGI: 37.9 µM
CCRF-CEM leukemia
  TGI: 3.4 µM
BT-549 breast
  TGI: 31.6 µM
OVCAR-3 ovarian
  TGI: 31.7 µM
HL-60(TB) leukemia
  TGI: 2.38 µM
MDA-MB-435
  TGI: 4.1 µM
SR leukemia
  TGI: 5.15 µM
U251 CNS
  TGI: 3.03 µM
UACC-62 melanoma
  TGI: 30.3 µM
SK-MEL-2 melanoma
  TGI: 34.3 µM
SK-MEL-28 melanoma
  TGI: 9.53 µM
MCF7 breast
  TGI: 2.81 µM
MOLT-4 leukemia
  TGI: 6.27 µM
MDA-MB-231 breast
  TGI: 4.11 µM
HOP-62 NSCLC
  TGI: 35.2 µM
HCC-2998 colon
  TGI: 11.9 µM
T-47D breast
  TGI: 40.2 µM
A498 renal
  TGI: 33.4 µM
SN12C renal
  TGI: 22.3 µM
TK-10 renal
  TGI: 3.91 µM
UO-31 renal
  TGI: 3.02 µM
HS 578T breast
  TGI: 20.5 µM
SW-620 colon
  TGI: 3.19 µM
PC-3 prostate
  TGI: 4.6 µM
ACHN renal
  TGI: 22.4 µM
K-562 leukemia
  TGI: 7.16 µM
SNB-75 CNS
  TGI: 8.58 µM
RPMI-8226 leukemia
  TGI: 5.67 µM
NCI-H460 lung
  TGI: 3.26 µM
SF-268 CNS
  TGI: 9.26 µM
OVCAR-5 ovarian
  TGI: 10 µM
EKVX NSCLC
  TGI: 27.9 µM
786-0 renal
  TGI: 2.98 µM
OVCAR-4 ovarian
  TGI: 12 µM
HCT-15 colon
  TGI: 3.42 µM
NCI-H23 lung
  TGI: 3.37 µM
MALME-3M melanoma
  TGI: 7.81 µM
NCI-H226 lung
  TGI: 32.7 µM
HOP-92 NSCLC
  TGI: 24 µM
SNB-19 CNS
  TGI: 26.9 µM
